Measurements as given in ChEMBL document CHEMBL5150046, “Discovery of a Series of 5-Amide-1H-pyrazole-3-carboxyl Derivatives as Potent P2Y14R Antagonists with Anti-Inflammatory Characters” (J Med Chem, 2022).
Calls of active or inactive are those of the source. The rule behind the calls is not given here.

Legend:
Mus musculus [1] = test: Antiinflammatory activity in ICR mouse model of LPS-induced acute peritonitis assessed as reduction in IL-1beta level in peritoneal fluid at 5 mg/kg, ip pretreated for 1 hr followed by LPS stimulation and measured after 6 hrs by qRT-PCR analysis; type: functional, organism-based; settings: time 7.0 hrs
Mus musculus [2] = test: Antiinflammatory activity in ICR mouse model of LPS-induced acute peritonitis assessed as reduction in IL-6 level in peritoneal fluid at 5 mg/kg, ip pretreated for 1 hr followed by LPS stimulation and measured after 6 hrs by qRT-PCR analysis; type: functional, organism-based; settings: time 7.0 hrs
Mus musculus [3] = test: Antiinflammatory activity in ICR mouse model of LPS-induced acute peritonitis assessed as reduction in TNF-alpha level in peritoneal fluid at 5 mg/kg, ip pretreated for 1 hr followed by LPS stimulation and measured after 6 hrs by qRT-PCR analysis; type: functional, organism-based; settings: time 7.0 hrs
P2Y purinoceptor 14 = biological target: T1, P2Y purinoceptor 14 (Homo sapiens, UniProt Q15391); test: Antagonist activity at P2Y14R (unknown origin) expressed in HEK293 cells assessed as inhibition of forskolin-stimulated cAMP accumulation incubated in presence of IBMX by cAMP-glo assay; type: functional, cell-based
T1 sequence (Q15391 whole entry): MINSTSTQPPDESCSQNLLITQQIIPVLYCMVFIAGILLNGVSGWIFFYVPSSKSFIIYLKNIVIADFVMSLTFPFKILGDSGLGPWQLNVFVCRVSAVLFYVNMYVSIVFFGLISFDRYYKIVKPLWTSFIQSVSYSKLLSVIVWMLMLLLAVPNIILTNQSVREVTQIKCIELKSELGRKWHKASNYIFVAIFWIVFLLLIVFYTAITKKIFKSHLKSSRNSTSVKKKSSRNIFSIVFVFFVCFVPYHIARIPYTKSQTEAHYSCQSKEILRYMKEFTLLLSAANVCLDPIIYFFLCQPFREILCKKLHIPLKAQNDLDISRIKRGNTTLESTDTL

[4] = biological target: T2, P2Y purinoceptor 14 (Homo sapiens) (UniProt Q15391)
T2 sequence (whole entry): T1 sequence (Q15391 whole entry)

P2Y purinoceptor 4 = P2Y purinoceptor 4 (Homo sapiens, UniProt P51582)
[5] = HEK293, filed as antagonist, dose 100.0 nM

Sequence of P2Y purinoceptor 4 (P51582 whole entry): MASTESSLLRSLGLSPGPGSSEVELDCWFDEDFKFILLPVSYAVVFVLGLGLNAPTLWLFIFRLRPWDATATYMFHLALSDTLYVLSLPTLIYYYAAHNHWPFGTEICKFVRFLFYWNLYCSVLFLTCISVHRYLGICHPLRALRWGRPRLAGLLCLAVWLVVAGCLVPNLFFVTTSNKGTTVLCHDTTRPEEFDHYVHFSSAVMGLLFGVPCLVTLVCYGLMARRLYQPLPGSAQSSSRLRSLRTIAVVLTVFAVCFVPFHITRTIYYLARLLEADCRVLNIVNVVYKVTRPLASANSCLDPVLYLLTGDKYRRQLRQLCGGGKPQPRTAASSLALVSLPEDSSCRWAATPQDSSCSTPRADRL

| IC50 (P2Y purinoceptor 14) | inhibition [4, 5] | Structure (SMILES) | other results |
| --- | --- | --- | --- |
| – | – | C[C@@H]1C[C@H]2[C@@H]3CCC4=CC(=O)C=C[C@]4(C)[C@@]3(F)[C@@H](O)C[C@]2(C)[C@@]1(O)C(=O)CO | Activity (Mus musculus [1]): Active; Activity (Mus musculus [2]): Active; Activity (Mus musculus [3]): Active |
| 3.81 nM | 98.2% | CC(=O)c1ccc(C(=O)Nc2cc(C(=O)O)nn2Cc2ccc(F)cc2)cc1 | – |
| 111 nM | 58.5% | Cc1ccc(C(=O)Nc2cc(C(=O)O)nn2Cc2ccccc2F)cc1 | – |
| – | 43.6% | Cc1ccc(C(=O)Nc2cc(C(=O)O)nn2Cc2ccc(F)cc2)o1 | – |
| 4.01 nM | 90.3% | Cc1ccc(C(=O)Nc2cc(C(=O)O)nn2Cc2cc(F)c(F)c(F)c2)cc1 | – |
| – | 77.4% | O=C(Nc1cc(C(=O)O)nn1Cc1ccc(F)cc1)c1ccccc1 | – |
| 4.83 nM | 93% | Cc1ccc(C(=O)Nc2cc(C(=O)O)nn2Cc2ccccc2C(F)(F)F)cc1 | – |
| – | 76% | O=C(O)c1cc(NC(=O)c2ccco2)n(Cc2ccc(F)cc2)n1 | – |
| 4.65 nM | 97.9% | CCc1ccc(C(=O)Nc2cc(C(=O)O)nn2Cc2ccc(F)cc2)cc1 | – |
| – | – | O=C(C1CC1)N1CCc2cc(Br)c(S(=O)(=O)Nc3ccc(Cl)c(C(F)(F)F)c3)cc21 | IC50 (P2Y purinoceptor 4): 13600 nM |
| – | 77.9% | Cc1ccc(C(=O)Nc2cc(C(=O)O)nn2Cc2ccc(F)cc2)s1 | – |
| – | – | O=C(Nc1cc(C(=O)O)nn1Cc1ccc(F)cc1)c1cccnc1 | inhibition ([4]; HEK293, dose 100.0 nM): 27.4% |
| – | – | O=C(Nc1cc(C(=O)O)nn1Cc1ccc(F)cc1)c1cccc(F)c1 | inhibition ([4]; HEK293, dose 100.0 nM): 25.2% |
| 14.3 nM | 98.3% | Cc1ccc(C(=O)Nc2cc(CC(=O)O)nn2Cc2ccc(F)cc2)cc1 | – |
| 41 nM | 79.8% | Cc1ccc(C(=O)Nc2cc(C(=O)O)nn2Cc2cc(F)cc(F)c2)cc1 | – |
| – | – | Cc1ccc(CC(=O)Nc2cc(C(=O)O)nn2Cc2ccc(F)cc2)cc1 | inhibition ([4]; HEK293, dose 100.0 nM): 28.5% |
